Measurements reported in article PMC12396409, “Screening and hit evaluation of a microbial metabolite library against the pathogenic Plasmodium falciparum and Toxoplasma gondii parasites” (International Journal for Parasitology: Drugs and Drug …, 2025).
Like-named read-outs stand apart in the source and are kept apart here.

Experiments:
[1] = tested on: P. falciparum 3D7 parasites; experiment: P. falciparum growth inhibition assay, 1-cycle (72 h treatment), SYBR DNA staining (library screen at 2 μg/mL and dose-response); type: cell-based, Plasmodium falciparum; settings: 72 h; for activity at 2 µg/mL: Plasmodium falciparum
[2] = tested on: T. gondii RH strain (RH-Tub-eYFP) tachyzoites; experiment: microbe, parasite or virus in culture; type: cell-based, Toxoplasma gondii; settings: 72 h, 72 h; for percent parasite growth at 2 µg/mL: Toxoplasma gondii
[3] = tested on: P. falciparum 3D7 parasites; experiment: P. falciparum growth inhibition assay, 2-cycle (120 h treatment), delayed-death screen and dose-response; type: cell-based, Plasmodium falciparum; settings: 120 h; for activity at 2 µg/mL: Plasmodium falciparum
[4] = library screen at 2 μg/mL, % growth, replicate 1
[5] = library screen at 2 μg/mL, % growth, replicate 2
[6] = P. falciparum, screen at 2 μg/mL, replicate 1
[7] = P. falciparum, screen at 2 μg/mL, replicate 2
[8] = T. gondii, screen at 2 μg/mL, replicate 1
[9] = T. gondii, screen at 2 μg/mL, replicate 2
[10] = P. falciparum, parasite screen 2 μg/mL, % growth, replicate 1
[11] = P. falciparum, parasite screen 2 μg/mL, % growth, replicate 2
[12] = T. gondii, parasite screen 2 μg/mL, % growth, replicate 1
[13] = T. gondii, parasite screen 2 μg/mL, % growth, replicate 2

`CC1(C)C[C@]23[C@@H]4COC(=O)[C@H]2CC[C@H]1[C@@H]3CC4=O` [Quadrone] gave an activity at 2 µg/mL ([1]; 3D7, P. falciparum, parasite screen 2 μg/mL, % growth, replicate 1, read-out: Pf_72h_%Growth_Rep1) of 19%, an activity at 2 µg/mL ([1]; 3D7, P. falciparum, parasite screen 2 μg/mL, % growth, replicate 2, read-out: Pf_72h_%Growth_Rep2) of 18.9% and a percent parasite growth at 2 µg/mL ([2]; T. gondii, parasite screen 2 μg/mL, % growth, replicate 1, read-out: Tg_72h_%Growth_Rep1) of 48.4%. It also gave a percent parasite growth at 2 µg/mL ([2]; T. gondii, parasite screen 2 μg/mL, % growth, replicate 2, read-out: Tg_72h_%Growth_Rep2) of 61.5%, an activity at 2 µg/mL ([3]; 3D7, P. falciparum, parasite screen 2 μg/mL, % growth, replicate 1, read-out: Pf_120h_%Growth_Rep1) of 7% and an activity at 2 µg/mL ([3]; 3D7, P. falciparum, parasite screen 2 μg/mL, % growth, replicate 2, read-out: Pf_120h_%Growth_Rep2) of 13.5%.

With `CO[C@H]1C[C@H](O[C@H]2[C@H](C)O[C@@H](O[C@@H]3/C(C)=C/C[C@@H]4C[C@@H](C[C@]5(C=C[C@H](C)[C@@H](C6CCCCC6)O5)O4)OC(=O)[C@@H]4C=C(C)[C@@H](O)[C@H]5OC/C(=C\C=C\[C@@H]3C)[C@]54O)C[C@@H]2OC)O[C@@H](C)[C@@H]1O` [Doramectin] the Pf_72h_%Growth_Rep1 [1, 4] was 86.87%, the Pf_72h_%Growth_Rep2 [1, 5] was 79.49% and the Tg_72h_%Growth_Rep1 [2, 4] was 127.97%. It also gave a Tg_72h_%Growth_Rep2 [2, 5] of 102.84%, a Pf_120h_%Growth_Rep1 [3, 4] of 100.88% and a Pf_120h_%Growth_Rep2 [3, 5] of 96.33%.

Molecule `C=C(C)[C@H](C)CC[C@](C)(O)[C@H]1CC[C@]2(C)[C@@H]1CC[C@@H]1[C@@]3(C)CC[C@H](O)C(C)(C)[C@@H]3CC[C@]12C` [Carnaubadiol] has a Pf_72h_%Growth_Rep1 [1, 6] of 84.27%, a Pf_72h_%Growth_Rep2 [1, 7] of 81.18% and a Tg_72h_%Growth_Rep1 [2, 8] of 149.01%. The Tg_72h_%Growth_Rep2 [2, 9] was 97.97%, the Pf_120h_%Growth_Rep1 [3, 6] was 92.23% and the Pf_120h_%Growth_Rep2 [3, 7] was 87.62%.

`CC(C)=C[C@H]1C[C@H](C)[C@]2(CC[C@]3(C)C[C@@H]4C(C)=CC(=O)[C@@H]4/C(C=O)=C\C[C@H]32)O1` [Anhydroophiobolin A] gave a Pf_72h_%Growth_Rep1 [1, 4] of 9.46%, a Pf_72h_%Growth_Rep2 [1, 5] of 6.48% and a Tg_72h_%Growth_Rep1 [2, 4] of 154.62%. For the same molecule, the Tg_72h_%Growth_Rep2 [2, 5] was 91.26%, the Pf_120h_%Growth_Rep1 [3, 4] was 0.81% and the Pf_120h_%Growth_Rep2 [3, 5] was -1.29%.

`O=[N+]([O-])c1ncc[nH]1` [Azomycin] gave an activity at 2 µg/mL ([1]; 3D7, 72 h, library screen at 2 μg/mL, % growth, replicate 1, read-out: Pf_72h_%Growth_Rep1) of 83.2%, an activity at 2 µg/mL ([1]; 3D7, 72 h, library screen at 2 μg/mL, % growth, replicate 2, read-out: Pf_72h_%Growth_Rep2) of 88% and a percent parasite growth at 2 µg/mL ([2]; library screen at 2 μg/mL, % growth, replicate 1, read-out: Tg_72h_%Growth_Rep1) of 77.1%. For the same molecule, the percent parasite growth at 2 µg/mL ([2]; library screen at 2 μg/mL, % growth, replicate 2, read-out: Tg_72h_%Growth_Rep2) was 71.1%, the activity at 2 µg/mL ([3]; 3D7, 120 h, library screen at 2 μg/mL, % growth, replicate 1, read-out: Pf_120h_%Growth_Rep1) was 147% and the activity at 2 µg/mL ([3]; 3D7, 120 h, library screen at 2 μg/mL, % growth, replicate 2, read-out: Pf_120h_%Growth_Rep2) was 91.9%.

`Cc1cc(O)c(C=O)c2c1C(=O)Oc1c(CO)c(O)c3c(c1O2)C(O)OC3=O` (stereo not drawn) [Salazinic acid] was tested, and the Pf_72h_%Growth_Rep1 [1, 10] was 86.18%, the Pf_72h_%Growth_Rep2 [1, 11] was 54.69% and the Tg_72h_%Growth_Rep1 [2, 12] was 117.03%. For the same molecule, the Tg_72h_%Growth_Rep2 [2, 13] was 97.23%, the Pf_120h_%Growth_Rep1 [3, 10] was 77.56% and the Pf_120h_%Growth_Rep2 [3, 11] was 74.04%.

Work on `CCO[C@@H]1[C@@H](OC)[C@H](C)O[C@@H](O[C@@H]2C[C@H]3CC[C@@H]4[C@@H](C=C5C(=O)[C@H](C)[C@@H](O[C@H]6CC[C@H](N(C)C)[C@@H](C)O6)CCC[C@H](CC)OC(=O)C[C@H]54)[C@@H]3C2)[C@@H]1OC` [spinosyn J, 3'-Ethoxy-5,6-dihydro-] yielded a Pf_72h_%Growth_Rep1 [1, 10] of 5.68%, a Pf_72h_%Growth_Rep2 [1, 11] of 5.35% and a Tg_72h_%Growth_Rep1 [2, 12] of 73.90%. For the same molecule, the Tg_72h_%Growth_Rep2 [2, 13] was 86.54%, the Pf_120h_%Growth_Rep1 [3, 10] was 7.21% and the Pf_120h_%Growth_Rep2 [3, 11] was 9.72%.

`CC[C@H]1C[C@]23OC(=O)/C(=C(\O)[C@@]4(CC)[C@@H]5CC[C@H](C)[C@H](O[C@H]6C[C@H](O)[C@H](NC(=O)c7[nH]c(Cl)cc7Cl)[C@@H](C)O6)[C@H]5C=C[C@H]4C/C=C/C/C(C)=C/[C@@]2(C)C=C1C(=O)O)C3=O` [Decatromicin B] gave a Pf_72h_%Growth_Rep1 [1, 6] of 89.49%, a Pf_72h_%Growth_Rep2 [1, 7] of 90.33% and a Tg_72h_%Growth_Rep1 [2, 8] of 105.42%. The Tg_72h_%Growth_Rep2 [2, 9] was 104.91%, the Pf_120h_%Growth_Rep1 [3, 6] was 74.87% and the Pf_120h_%Growth_Rep2 [3, 7] was 101.36%.

`C=C1CC[C@H]2C(C)(C)CCC[C@]2(C)[C@H]1C[C@@]12C[C@H]3C(=O)N[C@@H](CC(C)C)C(=O)N3[C@@H]1Nc1ccccc12` [Drimentine A] showed a Pf_72h_%Growth_Rep1 [1, 4] of 31.67%, a Pf_72h_%Growth_Rep2 [1, 5] of 47.87% and a Tg_72h_%Growth_Rep1 [2, 4] of 101.23%. It also gave a Tg_72h_%Growth_Rep2 [2, 5] of 80.15%, a Pf_120h_%Growth_Rep1 [3, 4] of 26.95% and a Pf_120h_%Growth_Rep2 [3, 5] of 40.06%.
